Assay results published in patent US9394263B2, “Substituted hetero-azepinones” (priority 2012, dated 2016).
Structures can show the parent of a compound that is named as a salt. Where two headings read alike, the source gives them in different places.

Experiments:
[1] = molecular target: BIR3 domain of XIAP (Homo sapiens (Human), UniProt P98170); test: TR-FRET assay for BIR3: inhibition of binding of XIAP BIR3 domain to Peptide A (SMAC-derived peptide)
[2] = molecular target: BIR2 domain of XIAP (Homo sapiens (Human), UniProt P98170, C202A/C213G); test: TR-FRET assay for BIR2: inhibition of binding of XIAP BIR2 domain to Peptide A (SMAC-derived peptide);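 note: percent inhibition measured across a concentration series of each compound, from which the IC50 was derived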
Chain of BIR2 domain of XIAP (P98170 other isoform, or with tags, fused parts or gaps, stated change not applied): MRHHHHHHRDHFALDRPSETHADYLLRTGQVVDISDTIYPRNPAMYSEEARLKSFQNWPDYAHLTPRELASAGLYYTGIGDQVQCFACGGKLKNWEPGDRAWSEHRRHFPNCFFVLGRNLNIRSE
Method: TR-FRET Assay for BIR2 and BIR3
The peptides were labeled with the fluorescent tags FITC or TAMRA and Kd values were determined by fluorescence polarization assay.
The peptide sequence was derivatized with biotin to provide [sequence]-(8-biotin)-OH 1:2 TFA as the substrate for the TR-FRET assay.
The XIAP protein sequence was obtained from the SWISS-PROT protein sequence database and the BIR2 and BIR3 domains were derived from that.
Percentage of inhibition at each concentration was determined to generate an IC50 value for each test compound.

Chain of BIR3 domain of XIAP (P98170 241-356 with tags or gaps limits assumed): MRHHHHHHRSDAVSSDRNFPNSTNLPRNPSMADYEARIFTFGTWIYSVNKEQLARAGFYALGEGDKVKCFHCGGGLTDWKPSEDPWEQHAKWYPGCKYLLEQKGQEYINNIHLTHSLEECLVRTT

Compound | IC50 ([1]; read-out: BIR3 IC50) | IC50 ([2]; read-out: BIR2 IC50) | IC50 [2] | IC50 [1]
[2H]C([2H])([2H])N[C@@H](C)C(=O)N[C@@H]1C(=O)N(Cc2c(OC)ccc3cc(Br)ccc23)c2ccccc2OC12CCOCC2 [Example 19, (2S)-N-(5-((6-Bromo-2-methoxynaphthalen-1-yl)methyl)-(3S)-4-oxo-2′,3′,5′,6′-tetrahydro-3H-spiro[benzo[b][1,4]oxazepine-2,4′-pyran]-3-yl)-2-(methyl-d3-amino)propanamide hydrochloride] | – | – | – | 22.9 µM
CC[C@H](NC)C(=O)N[C@@H]1C(=O)N(Cc2c(OC)ccc3cc(Br)ccc23)c2ccc(F)cc2OC12CCOCC2 [Example 16, (2S)-N-(5-((6-Bromo-2-methoxynaphthalen-1-yl)methyl)-(3S)-8-fluoro-4-oxo-2′,3′,5′,6′-tetrahydro-3H-spiro[benzo[b][1,4]oxazepine-2,4′-pyran]-3-yl)-2-(methylamino)butanamide hydrochloride] | > 50 µM | – | – | –
CN[C@@H](C)C(=O)N[C@H]1COc2ccccc2N(Cc2nn(-c3ccccc3C#N)c3cc(Br)ccc23)C1=O [Example 72, (S)-N-((S)-5-((6-Bromo-1-(2-cyanophenyl)-1H-indazol-3-yl)methyl)-4-oxo-2,3,4,5-tetrahydrobenzo[b][1,4]oxazepin-3-yl)-2-(methylamino)propanamide trifluoroacetate] | > 54.8 µM | 0.281 µM | – | –
CN[C@@H](C)C(=O)N[C@H]1CSc2c(NC(=O)COCCOC)cccc2N(Cc2cccc3ccccc23)C1=O [Example 22, (S)-N-{(R)-9-[2-(2-Methoxy-ethoxy)-acetylamino]-5-naphthalen-1-ylmethyl-4-oxo-2,3,4,5-tetrahydro-benzo[b][1,4]thiazepin-3-yl}-2-methylamino-propionamide hydrochloride] | > 54.8 µM | – | – | –
CN[C@@H](C)C(=O)N[C@H]1CSc2c(NC(=O)C3CCN(C(C)=O)CC3)cccc2N(Cc2cccc3ccccc23)C1=O [Example 23, 1-Acetyl-piperidine-4-carboxylic acid [(R)-3-((S)-2-methylamino-propionylamino)-5-naphthalen-1-ylmethyl-4-oxo-2,3,4,5-tetrahydro-benzo[b][1,4]thiazepin-9-yl]-amide] | – | – | 0.373 µM | > 54.8 µM

Further lines, with some results ahead:

IC50 ([1]; read-out: BIR3 IC50) | IC50 ([2]; read-out: BIR2 IC50) | IC50 [2] | Compound | IC50 [1]
> 54.8 µM | 0.107 µM | – | CCN[C@@H](C)C(=O)N[C@@H]1C(=O)N(Cc2c(C#N)n(-c3ccccc3C#N)c3ccccc23)c2ccccc2O[C@H]1C [Example 77, (S)-N-((2S,3S)-5-((2-Cyano-1-(2-cyanophenyl)-1H-indol-3-yl)methyl)-2-methyl-4-oxo-2,3,4,5-tetrahydrobenzo[b][1,4]oxazepin-3-yl)-2-(ethylamino)propanamide] | –
> 54.8 µM | 0.146 µM | – | CCN[C@@H](C)C(=O)N[C@@H]1C(=O)N(Cc2nn(-c3ccccc3C#N)c3ccccc23)c2ccccc2O[C@H]1C [Example 74, (2S)-N-((2S,3S)-5-((1-(2-Cyanophenyl)-1H-indazol-3-yl)methyl)-2-methyl-4-oxo-2,3,4,5-tetrahydrobenzo[b][1,4]oxazepin-3-yl)-2-(ethylamino)propanamide trifluoroacetate] | –
